{"source": "the supplement of paper PMC10307832", "experiment_in_all_cases": "relative viability (nuclei count vs DMSO), 5 days (fraction); higher = more cells survive", "key": {"NCI-H1755": {"tested_on": "NCI-H1755", "method_in_brief": "(§1)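 Lung cancer cell lines in 1536-well plates got either a single drug or a fixed anchor-drug dose together with five library-drug doses (not always all listed) in √10 steps, by pin tool, on the day after seeding. Nuclei were counted after 5 days, and relative viability is the treated-to-vehicle ratio of nuclei counts. Values are medians of duplicate plates.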"}, "NCI-H1792": {"tested_on": "NCI-H1792", "method_in_brief": "as §1"}, "NCI-H1975": {"tested_on": "NCI-H1975", "method_in_brief": "as §1"}, "NCI-H2170": {"tested_on": "NCI-H2170", "method_in_brief": "as §1"}, "NCI-H23": {"tested_on": "NCI-H23", "method_in_brief": "as §1"}, "NCI-H441": {"tested_on": "NCI-H441", "method_in_brief": "as §1"}, "NCI-H520": {"tested_on": "NCI-H520", "method_in_brief": "as §1"}, "NCI-H596": {"tested_on": "NCI-H596", "method_in_brief": "as §1"}, "PC-3 [JPC-3]": {"tested_on": "PC-3 [JPC-3]", "method_in_brief": "as §1"}, "SK-MES-1": {"tested_on": "SK-MES-1", "method_in_brief": "as §1"}, "SW 900": {"tested_on": "SW 900", "method_in_brief": "as §1"}}, "data": [{"smiles": "NC(=O)Nc1cc(-c2cccc(F)c2)sc1C(=O)N[C@H]1CCCNC1", "note": "[AZD7762] + CC(=O)Nc1cccc(-n2c(=O)n(C3CC3)c(=O)c3c(Nc4ccc(I)cc4F)n(C)c(=O)c(C)c32)c1 [Trametinib] (partner 0.02 µM)", "values": [{"measurement": "relative viability", "setting": "NCI-H1755; first compound 0.01 µM", "result": 0.788}, {"measurement": "relative viability", "setting": "NCI-H1755; first compound 0.03162 µM", "result": 0.823}, {"measurement": "relative viability", "setting": "NCI-H1755; first compound 0.1 µM", "result": 0.76}, {"measurement": "relative viability", "setting": "NCI-H1755; first compound 0.3162 µM", "result": 0.694}, {"measurement": "relative viability", "setting": "NCI-H1755; first compound 1 µM", "result": 0.635}, {"measurement": "relative viability", "setting": "NCI-H1792; first compound 0.01 µM", "result": 0.406}, {"measurement": "relative viability", "setting": "NCI-H1792; first compound 0.03162 µM", "result": 0.355}, {"measurement": "relative viability", "setting": "NCI-H1792; first compound 0.1 µM", "result": 0.589}, {"measurement": "relative viability", "setting": "NCI-H1792; first compound 0.3162 µM", "result": 0.411}, {"measurement": "relative viability", "setting": "NCI-H1792; first compound 1 µM", "result": 0.527}, {"measurement": "relative viability", "setting": "NCI-H1975; first compound 0.01 µM", "result": 0.341}, {"measurement": "relative viability", "setting": "NCI-H1975; first compound 0.03162 µM", "result": 0.377}, {"measurement": "relative viability", "setting": "NCI-H1975; first compound 0.1 µM", "result": 0.331}, {"measurement": "relative viability", "setting": "NCI-H1975; first compound 0.3162 µM", "result": 0.345}, {"measurement": "relative viability", "setting": "NCI-H1975; first compound 1 µM", "result": 0.24}, {"measurement": "relative viability", "setting": "NCI-H2170; first compound 0.01 µM", "result": 0.935}, {"measurement": "relative viability", "setting": "NCI-H2170; first compound 0.03162 µM", "result": 0.939}, {"measurement": "relative viability", "setting": "NCI-H2170; first compound 0.1 µM", "result": 0.945}, {"measurement": "relative viability", "setting": "NCI-H2170; first compound 0.3162 µM", "result": 0.951}, {"measurement": "relative viability", "setting": "NCI-H2170; first compound 1 µM", "result": 0.914}, {"measurement": "relative viability", "setting": "NCI-H23; first compound 0.01 µM", "result": 0.477}, {"measurement": "relative viability", "setting": "NCI-H23; first compound 0.03162 µM", "result": 0.36}, {"measurement": "relative viability", "setting": "NCI-H23; first compound 0.1 µM", "result": 0.421}, {"measurement": "relative viability", "setting": "NCI-H23; first compound 0.3162 µM", "result": 0.392}, {"measurement": "relative viability", "setting": "NCI-H23; first compound 1 µM", "result": 0.201}, {"measurement": "relative viability", "setting": "NCI-H441; first compound 0.01 µM", "result": 0.511}, {"measurement": "relative viability", "setting": "NCI-H441; first compound 0.03162 µM", "result": 0.574}, {"measurement": "relative viability", "setting": "NCI-H441; first compound 0.1 µM", "result": 0.543}, {"measurement": "relative viability", "setting": "NCI-H441; first compound 0.3162 µM", "result": 0.517}, {"measurement": "relative viability", "setting": "NCI-H441; first compound 1 µM", "result": 0.359}, {"measurement": "relative viability", "setting": "NCI-H520; first compound 0.01 µM", "result": 0.713}, {"measurement": "relative viability", "setting": "NCI-H520; first compound 0.03162 µM", "result": 0.702}, {"measurement": "relative viability", "setting": "NCI-H520; first compound 0.1 µM", "result": 0.653}, {"measurement": "relative viability", "setting": "NCI-H520; first compound 0.3162 µM", "result": 0.484}, {"measurement": "relative viability", "setting": "NCI-H520; first compound 1 µM", "result": 0.194}, {"measurement": "relative viability", "setting": "NCI-H596; first compound 0.01 µM", "result": 0.931}, {"measurement": "relative viability", "setting": "NCI-H596; first compound 0.03162 µM", "result": 0.8}, {"measurement": "relative viability", "setting": "NCI-H596; first compound 0.1 µM", "result": 0.923}, {"measurement": "relative viability", "setting": "NCI-H596; first compound 0.3162 µM", "result": 0.803}, {"measurement": "relative viability", "setting": "NCI-H596; first compound 1 µM", "result": 0.626}, {"measurement": "relative viability", "setting": "PC-3 [JPC-3]; first compound 0.01 µM", "result": 0.699}, {"measurement": "relative viability", "setting": "PC-3 [JPC-3]; first compound 0.03162 µM", "result": 0.722}, {"measurement": "relative viability", "setting": "PC-3 [JPC-3]; first compound 0.1 µM", "result": 0.69}, {"measurement": "relative viability", "setting": "PC-3 [JPC-3]; first compound 0.3162 µM", "result": 0.662}, {"measurement": "relative viability", "setting": "PC-3 [JPC-3]; first compound 1 µM", "result": 0.515}, {"measurement": "relative viability", "setting": "SK-MES-1; first compound 0.01 µM", "result": 0.543}, {"measurement": "relative viability", "setting": "SK-MES-1; first compound 0.03162 µM", "result": 0.535}, {"measurement": "relative viability", "setting": "SK-MES-1; first compound 0.1 µM", "result": 0.559}, {"measurement": "relative viability", "setting": "SK-MES-1; first compound 0.3162 µM", "result": 0.347}, {"measurement": "relative viability", "setting": "SK-MES-1; first compound 1 µM", "result": 0.227}, {"measurement": "relative viability", "setting": "SW 900; first compound 0.01 µM", "result": 0.799}, {"measurement": "relative viability", "setting": "SW 900; first compound 0.03162 µM", "result": 0.794}, {"measurement": "relative viability", "setting": "SW 900; first compound 0.1 µM", "result": 0.721}, {"measurement": "relative viability", "setting": "SW 900; first compound 0.3162 µM", "result": 0.862}, {"measurement": "relative viability", "setting": "SW 900; first compound 1 µM", "result": 0.495}]}]}
